Results as given in ChEMBL document CHEMBL1141054, “Analogs of a potent maxi-K potassium channel opener with an improved inhibitory profile toward cytochrome P450 isozymes” (Bioorg Med Chem Lett, 2005).

Experiments:
[1] = target: T1, Cytochrome P450 1A2 (Homo sapiens, UniProt P05177); assay: Inhibition against Cytochrome P450 1A2 prepared from baculovirus-infected insect cells using 3-cyano-7-ethoxycoumarin; type: ADME
T1 sequence (P05177 whole entry): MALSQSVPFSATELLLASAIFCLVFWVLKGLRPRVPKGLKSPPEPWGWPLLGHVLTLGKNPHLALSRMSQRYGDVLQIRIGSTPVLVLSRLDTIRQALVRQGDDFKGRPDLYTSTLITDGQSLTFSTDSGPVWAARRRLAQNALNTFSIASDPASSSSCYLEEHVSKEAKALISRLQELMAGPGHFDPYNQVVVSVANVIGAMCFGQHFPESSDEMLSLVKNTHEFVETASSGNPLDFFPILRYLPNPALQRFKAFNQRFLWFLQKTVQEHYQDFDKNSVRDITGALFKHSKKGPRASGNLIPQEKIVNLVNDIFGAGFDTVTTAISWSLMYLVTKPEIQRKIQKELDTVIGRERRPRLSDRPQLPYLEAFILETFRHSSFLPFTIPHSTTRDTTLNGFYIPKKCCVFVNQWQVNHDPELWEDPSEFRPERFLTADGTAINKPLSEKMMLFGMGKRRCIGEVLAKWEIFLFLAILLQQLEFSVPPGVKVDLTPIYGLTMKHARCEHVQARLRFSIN

[2] = target: Cytochrome P450 2C19 (Homo sapiens, UniProt P33261); assay: Inhibition against Cytochrome P450 2C19 prepared from baculovirus-infected insect cells using 3-cyano-7-ethoxycoumarin; type: ADME
Chain of Cytochrome P450 2C19 (P33261 whole entry): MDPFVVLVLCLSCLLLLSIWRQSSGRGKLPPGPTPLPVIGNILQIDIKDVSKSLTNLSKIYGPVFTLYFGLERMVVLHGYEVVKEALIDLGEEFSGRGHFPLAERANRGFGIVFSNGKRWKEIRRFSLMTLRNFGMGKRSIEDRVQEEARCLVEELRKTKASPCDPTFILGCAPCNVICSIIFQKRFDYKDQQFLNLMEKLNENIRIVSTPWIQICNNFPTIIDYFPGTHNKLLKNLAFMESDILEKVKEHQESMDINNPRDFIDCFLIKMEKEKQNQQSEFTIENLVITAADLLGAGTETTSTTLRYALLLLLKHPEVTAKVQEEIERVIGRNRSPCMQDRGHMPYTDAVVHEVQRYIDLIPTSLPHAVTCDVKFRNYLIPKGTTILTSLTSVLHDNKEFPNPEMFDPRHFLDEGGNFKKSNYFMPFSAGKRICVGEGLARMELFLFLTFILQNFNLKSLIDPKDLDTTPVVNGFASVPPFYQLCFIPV

[3] = Percent increase of potassium current mediated by large conductance calcium-activated channel expressed in Xenopus laevis oocytes at 20 uM; type: functional, Homo sapiens, Oocyte
[4] = target: T2, Cytochrome P450 2D6 (Homo sapiens, UniProt P10635); assay: Inhibition against Cytochrome P450 2D6 prepared from baculovirus-infected insect cells using 3-[2-(N,N-diethyl-N-methylamino)ethyl]-7- methoxy-4-methylcoumarin; type: ADME
T2 sequence (P10635 whole entry): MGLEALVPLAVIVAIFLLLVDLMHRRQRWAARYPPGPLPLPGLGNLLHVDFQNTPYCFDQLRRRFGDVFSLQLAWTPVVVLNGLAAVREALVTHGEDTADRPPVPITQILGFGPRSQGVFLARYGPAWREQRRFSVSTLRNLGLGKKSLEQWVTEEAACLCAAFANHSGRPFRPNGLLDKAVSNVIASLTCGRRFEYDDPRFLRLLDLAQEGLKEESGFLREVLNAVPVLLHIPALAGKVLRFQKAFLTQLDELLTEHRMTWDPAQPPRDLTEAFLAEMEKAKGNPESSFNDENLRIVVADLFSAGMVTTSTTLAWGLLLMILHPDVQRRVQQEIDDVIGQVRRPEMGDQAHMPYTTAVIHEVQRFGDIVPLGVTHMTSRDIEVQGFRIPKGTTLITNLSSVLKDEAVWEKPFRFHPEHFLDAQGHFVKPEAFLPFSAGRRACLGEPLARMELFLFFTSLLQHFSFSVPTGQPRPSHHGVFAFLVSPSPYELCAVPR

[5] = target: T3, Cytochrome P450 3A4 (Homo sapiens, UniProt P08684); assay: Inhibition against Cytochrome P450 3A4 prepared from baculovirus-infected insect cells using 7-benzyloxy- 4-trifluoromethylcoumarin; type: ADME
T3 sequence (P08684 whole entry): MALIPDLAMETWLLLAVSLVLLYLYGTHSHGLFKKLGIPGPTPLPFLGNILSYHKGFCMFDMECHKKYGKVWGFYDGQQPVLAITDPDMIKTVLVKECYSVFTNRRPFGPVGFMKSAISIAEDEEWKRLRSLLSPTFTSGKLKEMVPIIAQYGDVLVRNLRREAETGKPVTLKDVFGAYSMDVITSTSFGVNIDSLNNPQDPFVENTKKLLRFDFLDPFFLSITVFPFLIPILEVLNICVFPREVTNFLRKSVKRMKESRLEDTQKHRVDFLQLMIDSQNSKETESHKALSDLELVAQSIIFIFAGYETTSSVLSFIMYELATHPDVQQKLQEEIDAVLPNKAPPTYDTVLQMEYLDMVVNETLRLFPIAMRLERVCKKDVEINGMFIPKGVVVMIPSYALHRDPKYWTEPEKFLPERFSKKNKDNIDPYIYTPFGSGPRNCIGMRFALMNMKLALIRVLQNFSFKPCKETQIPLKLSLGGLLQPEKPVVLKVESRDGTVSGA

[6] = target: T4, Cytochrome P450 2C9 (Homo sapiens, UniProt P11712); assay: Inhibition against Cytochrome P450 2C9 prepared from baculovirus-infected insect cells using 7-methoxy-4-trifluoromethylcoumarin; type: ADME
T4 sequence (P11712 whole entry): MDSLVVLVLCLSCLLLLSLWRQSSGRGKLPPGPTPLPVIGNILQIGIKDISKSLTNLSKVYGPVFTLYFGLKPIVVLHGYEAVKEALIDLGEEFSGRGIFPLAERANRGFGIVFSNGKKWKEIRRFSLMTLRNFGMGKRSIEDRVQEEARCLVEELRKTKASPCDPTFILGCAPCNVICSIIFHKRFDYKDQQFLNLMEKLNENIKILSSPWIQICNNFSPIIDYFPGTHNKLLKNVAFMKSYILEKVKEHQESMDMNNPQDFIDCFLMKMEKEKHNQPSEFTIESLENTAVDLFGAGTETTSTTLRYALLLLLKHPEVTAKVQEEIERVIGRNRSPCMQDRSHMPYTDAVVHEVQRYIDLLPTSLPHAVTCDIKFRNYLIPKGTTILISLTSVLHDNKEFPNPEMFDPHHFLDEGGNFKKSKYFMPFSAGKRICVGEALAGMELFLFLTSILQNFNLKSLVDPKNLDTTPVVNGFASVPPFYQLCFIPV

[7] = target: T3, Cytochrome P450 3A4; assay: Inhibition against Cytochrome P450 3A4 prepared from baculovirus-infected insect cells using resorufin benzyl ether; type: ADME
[8] = target: T4, Cytochrome P450 2C9; assay: Inhibitory activity against Cytochrome P450 2C9; type: ADME
[9] = target: T3, Cytochrome P450 3A4; assay: Inhibition against Cytochrome P450 3A4 prepared from baculovirus-infected insect cells using resorufin benzylether; type: ADME
[10] = target: T2, Cytochrome P450 2D6; assay: Inhibition against Cytochrome P450 2D6 prepared from baculovirus-infected insect cells using 3-[2-(N,N-diethyl-N-methylamino)ethyl]-7-methoxy-4-methylcoumarin; type: ADME
[11] = target: T3, Cytochrome P450 3A4; assay: Inhibition against Cytochrome P450 3A4 prepared from baculovirus-infected insect cells using 7-benzyloxy-4-trifluoromethylcoumarin; type: ADME
[12] = target: T4, Cytochrome P450 2C9; assay: Inhibition against Cytochrome P450 2C9; type: ADME

O=c1c(CCO)c(-c2cc(Cl)ccc2O)c2cc(C(F)(F)F)ccc2n1Cc1nn[nH]n1
IC50 [1]: > 100 µM | IC50 [2]: 12 µM | Increase [3]: 205.8% | IC50 [4]: > 100 µM | IC50 [5]: 30 µM | IC50 [6]: 19 µM | IC50 [7]: 13 µM

N=C(N)Cn1c(=O)c(CCO)c(-c2cc(Cl)ccc2O)c2cc(C(F)(F)F)ccc21
Increase [3]: 105.8%

O=C1Cc2c(c3cc(C(F)(F)F)ccc3[nH]c2=O)-c2cc(Cl)ccc2O1
IC50 [8]: 12.4 µM

NC(=O)COc1ccc(Cl)cc1-c1c(CCO)c(O)nc2ccc(C(F)(F)F)cc12
Increase [3]: 124%

N#CCn1c(=O)c(CCO)c(-c2cc(Cl)ccc2O)c2cc(C(F)(F)F)ccc21
IC50 [1]: > 40 µM | IC50 [2]: 24 µM | Increase [3]: 236.6% | IC50 [4]: 23 µM | IC50 [5]: 13 µM | IC50 [6]: 3.9 µM | IC50 [7]: 18 µM

CCN(CC)C[C@H](O)CSc1c(-c2cc(Cl)ccc2O)c2cc(C(F)(F)F)ccc2[nH]c1=O
IC50 [8]: 37.7 µM

CCN(CC)C[C@@H](O)CSc1c(-c2cc(Cl)ccc2O)c2cc(C(F)(F)F)ccc2[nH]c1=O
IC50 [8]: 50.7 µM

OCCc1c(O)nc2ccc(C(F)(F)F)cc2c1-c1cc(Cl)ccc1OCc1nn[nH]n1
Increase [3]: 111%

O=c1[nH]c2ccccc2c(Cc2ccccc2)c1-[n+]1ccccc1
IC50 [8]: > 100 µM

N=C(N)COc1ccc(Cl)cc1-c1c(CCO)c(O)nc2ccc(C(F)(F)F)cc12
Increase [3]: 118.3%

NC(=O)Cn1c(=O)c(CCO)c(-c2cc(Cl)ccc2O)c2cc(C(F)(F)F)ccc21
IC50 [1]: > 100 µM | IC50 [2]: 8.2 µM | Increase [3]: 262.5% | IC50 [4]: > 100 µM | IC50 [5]: 26 µM | IC50 [6]: 16 µM | IC50 [7]: 50 µM

N#CCOc1ccc(Cl)cc1-c1c(CCO)c(O)nc2ccc(C(F)(F)F)cc12
Increase [3]: 148.9%

Cn1c(=O)c(CCO)c(-c2cc(Cl)ccc2O)c2cc(C(F)(F)F)ccc21
Increase [3]: 296.1% | IC50 [8]: 1.1 µM

CC(=O)CC1Oc2ccc(Cl)cc2-c2c1c(=O)[nH]c1ccc(C(F)(F)F)cc21 (stereo not drawn)
IC50 [8]: 19.5 µM

COc1ccc(Cl)cc1-c1c(CCO)c(O)nc2ccc(C(F)(F)F)cc12
Increase [3]: 211.2% | IC50 [8]: 5.47 µM

O=c1[nH]c2ccc(C(F)(F)F)cc2c(-c2cc(Cl)ccc2O)c1CCO [BMS-223131]
IC50 [9]: > 100 µM | IC50 [1]: 30 µM | IC50 [2]: 5.2 µM | Increase [3]: 252.6% | IC50 [10]: 35 µM | IC50 [11]: 8.1 µM | IC50 [6]: 1.7 µM | IC50 [12]: 1.7 µM
